According to PubChem BioAssay AID248 (DTP/NCI, 2004):
Where “and” joins values, the source holds several entries; their conditions need not be identical. Identical values can stand only once. Inconclusive results and toxic doses are left out. No stated cut-off is given here; in the data, active means T/C of 150% or more; inactive means T/C below 125%. Peptide text beside a SMILES is read from it. * marks the point of attachment. Cbz = O=C(OCc1ccccc1)*; OBn = c1ccc(CO*)cc1; Bn = c1ccc(C*)cc1

System: L1210 leukemia ip in BDF1 mice, survival T/C
Test: NCI In Vivo Anticancer Drug Screen. Data for tumor model L1210 Leukemia (intraperitoneal) in B6D2F1 (BDF1) mice
Conditions: endpoint: mean survival time, higher = longer survival
Procedure, shortened: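 Antitumor effect is assessed in tumor-bearing animals. Survival in the compound arm is compared with a vehicle-dosed control arm and expressed as their quotient.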

[1] = dose: 100.0 mg/kg/injection, schedule: Q04DX002 (ip), vehicle: Klucel (hydroxypropylcellulose) (HPC)
[2] = dose: 100.0 mg/kg/injection, schedule: Q04DX003 (ip), vehicle: saline with Tween-80
[3] = dose: 200.0 mg/kg/injection, schedule: Q04DX003 (ip), vehicle: saline with Tween-80
[4] = dose: 50.0 mg/kg/injection, schedule: Q04DX003 (ip), vehicle: Klucel (hydroxypropylcellulose) (HPC)
[5] = dose: 100.0 mg/kg/injection, schedule: Q04DX003 (ip), vehicle: Klucel (hydroxypropylcellulose) (HPC)
[6] = dose: 200.0 mg/kg/injection, schedule: Q04DX003 (ip), vehicle: Klucel (hydroxypropylcellulose) (HPC)
[7] = dose: 400.0 mg/kg/injection, schedule: Q04DX003 (ip), vehicle: Klucel (hydroxypropylcellulose) (HPC)
[8] = dose: 100.0 mg/kg/injection, schedule: Q01DX009 (ip), vehicle: Klucel (hydroxypropylcellulose) (HPC)
[9] = dose: 200.0 mg/kg/injection, schedule: Q01DX009 (ip), vehicle: Klucel (hydroxypropylcellulose) (HPC)
[10] = dose: 400.0 mg/kg/injection, schedule: Q01DX009 (ip), vehicle: Klucel (hydroxypropylcellulose) (HPC)
[11] = dose: 100.0 mg/kg/injection, schedule: Q01DX001 (ip), vehicle: saline
[12] = dose: 200.0 mg/kg/injection, schedule: Q01DX001 (ip), vehicle: saline
[13] = dose: 100.0 mg/kg/injection, schedule: Q01DX009 (ip), vehicle: saline
[14] = dose: 100.0 mg/kg/injection, schedule: Q04DX003 (ip), vehicle: saline
[15] = dose: 200.0 mg/kg/injection, schedule: Q01DX009 (ip), vehicle: saline
[16] = dose: 200.0 mg/kg/injection, schedule: Q04DX003 (ip), vehicle: saline
[17] = dose: 100.0 mg/kg/injection, schedule: Q01DX009 (ip), vehicle: saline with Tween-80
[18] = dose: 200.0 mg/kg/injection, schedule: Q01DX009 (ip), vehicle: saline with Tween-80
[19] = dose: 25.0 mg/kg/injection, schedule: Q01DX009 (ip), vehicle: Klucel (hydroxypropylcellulose) (HPC)
[20] = dose: 50.0 mg/kg/injection, schedule: Q01DX009 (ip), vehicle: Klucel (hydroxypropylcellulose) (HPC)
[21] = dose: 400.0 mg/kg/injection, schedule: Q04DX003 (ip), vehicle: saline with Tween-80
[22] = dose: 400.0 mg/kg/injection, schedule: Q01DX009 (ip), vehicle: saline with Tween-80

Measured: T/C

CCCN1CCCC(OC(=O)N(C)C)C1 (stereo unspecified)
inactive: [1] 86 % of control | dose: 200.0 mg/kg/injection, schedule: Q04DX002 (ip), vehicle: Klucel (hydroxypropylcellulose) (HPC) 104 % of control

CCOC(=O)C(C(C)=O)C(c1cccc(O)c1)C(C(C)=O)C(=O)O (stereo unspecified)
inactive: dose: 25.6 mg/kg/injection, schedule: Q04DX002 (ip), vehicle: saline with Tween-80 95 % of control | dose: 37.5 mg/kg/injection, schedule: Q01DX009 (ip), vehicle: saline with Tween-80 100 % of control | dose: 64.0 mg/kg/injection, schedule: Q04DX002 (ip), vehicle: saline with Tween-80 91 % of control | dose: 75.0 mg/kg/injection, schedule: Q01DX009 (ip), vehicle: saline with Tween-80 91 % of control | [2] 90 % of control | dose: 150.0 mg/kg/injection, schedule: Q01DX009 (ip), vehicle: saline with Tween-80 94 % of control | dose: 160.0 mg/kg/injection, schedule: Q04DX002 (ip), vehicle: saline with Tween-80 87 % of control | [3] 90 % of control

CS(=O)(=O)OCCN(CCOS(C)(=O)=O)c1ccc(C=Nc2ccc(-c3csc(-c4ccc(Br)cc4)n3)cc2)c(Cl)c1
inactive: [4] 107 % of control | [5] 112 % of control and 115 % of control | [6] 114 % of control and 118 % of control | [7] 123 % of control

Cc1ccc(CNC(=O)NC(C)(C)C)cc1
inactive: [8] 93 % of control | [9] 101 % of control | [10] 90 % of control

Oc1ccc(Nc2cc(/C=C/c3ccc(Cl)cc3)nc(/C=C/c3ccc(Cl)cc3)n2)cc1CN1CCCC1
inactive: dose: 50.0 mg/kg/injection, schedule: Q01DX001 (ip), vehicle: saline 89 % of control | [4] 104 % of control | [11] 93 % of control | [5] 95 % of control | [12] 91 % of control | [6] 98 % of control

CC(C)(C)NC(=O)CCC(CC(=O)NC(C)(C)C)S(=O)(=O)O (stereo unspecified)
inactive: dose: 50.0 mg/kg/injection, schedule: Q01DX009 (ip), vehicle: saline 97 % of control | [13] 97 % of control | [14] 98 % of control | [15] 90 % of control | [16] 95 % of control

O=C(Nc1ccc(Cl)cc1C(F)(F)F)Oc1ccc(Cl)cc1Br
inactive: dose: 50.0 mg/kg/injection, schedule: Q01DX009 (ip), vehicle: saline with Tween-80 98 % of control | [17] 103 % of control | [18] 103 % of control

CC(C)CC(NC(=O)C(CSCc1ccccc1)NC(=O)OCc1ccccc1)C(=O)OCc1ccccc1 (stereo unspecified) (Cbz-Cys(Bn)-Leu-OBn; configuration not given here)
inactive: dose: 100.0 mg/kg/injection, schedule: Q04DX003 (ip), vehicle: gum acacia 93 % of control | dose: 200.0 mg/kg/injection, schedule: Q04DX003 (ip), vehicle: gum acacia 93 % of control | dose: 400.0 mg/kg/injection, schedule: Q04DX003 (ip), vehicle: gum acacia 91 % of control

CSCCC1NC(=O)C(C(C)=Nc2ccccc2)=C1O (stereo unspecified)
inactive: dose: 50.0 mg/kg/injection, schedule: Q01DX001 (ip), vehicle: carboxymethylcellulose (CMC) 101 % of control | dose: 100.0 mg/kg/injection, schedule: Q01DX001 (ip), vehicle: carboxymethylcellulose (CMC) 109 % of control | dose: 200.0 mg/kg/injection, schedule: Q01DX001 (ip), vehicle: carboxymethylcellulose (CMC) 104 % of control | dose: 400.0 mg/kg/injection, schedule: Q01DX001 (ip), vehicle: carboxymethylcellulose (CMC) 104 % of control

NC(=S)N/N=C1\CC(c2ccccc2)Oc2ccccc21 (stereo unspecified)
inactive: [11] 88 % of control

O=C1c2ccccc2C(=O)C(Cl)C1Cl (stereo unspecified)
inactive: dose: 1.56 mg/kg/injection, schedule: Q04DX003 (ip), vehicle: other 97 % of control | dose: 3.13 mg/kg/injection, schedule: Q04DX003 (ip), vehicle: other 92 % of control | dose: 6.25 mg/kg/injection, schedule: Q04DX003 (ip), vehicle: other 96 % of control and 100 % of control

C=C1CCC2(C(C)C)CC12 (stereo unspecified)
inactive: [13] 103 % of control | [14] 96 % of control | [15] 93 % of control | [16] 110 % of control | dose: 400.0 mg/kg/injection, schedule: Q01DX009 (ip), vehicle: saline 94 % of control | dose: 400.0 mg/kg/injection, schedule: Q04DX003 (ip), vehicle: saline 100 % of control

O=C1c2sccc2-c2cccc3cccc1c23 (tested in a mixture with another compound)
inactive: [5] 96 % of control | [6] 102 % of control | [7] 106 % of control

C/C(=N\NC(=O)c1ccccc1)c1ccc(-c2ccccc2)cc1
inactive: [8] 94 % of control | [9] 105 % of control | [10] 94 % of control

CC(C)CC(C=O)(CCN(C)C)c1cccc2ccccc12 (stereo unspecified)
inactive: dose: 12.5 mg/kg/injection, schedule: Q04DX003 (ip), vehicle: saline with Tween-80 107 % of control | dose: 25.0 mg/kg/injection, schedule: Q04DX003 (ip), vehicle: saline with Tween-80 103 % of control | dose: 50.0 mg/kg/injection, schedule: Q04DX003 (ip), vehicle: saline with Tween-80 92 % of control

c1ccc(N=C(Nc2ccccc2)Nc2ccccc2)cc1
inactive: [19] 94 % of control | dose: 25.0 mg/kg/injection, schedule: Q04DX002 (ip), vehicle: Klucel (hydroxypropylcellulose) (HPC) 114 % of control | [20] 94 % of control | dose: 50.0 mg/kg/injection, schedule: Q04DX002 (ip), vehicle: Klucel (hydroxypropylcellulose) (HPC) 114 % of control | [8] 90 % of control | [1] 96 % of control and 98 % of control

Cc1cc(NS(=O)(=O)c2ccc(N=Nc3c(N)[nH]c(=S)[nH]c3=O)cc2)nc(C)n1
inactive: [11] 96 % of control | [12] 100 % of control

CN(C)C(C)(C)CCCNc1ccnc2cc(Cl)ccc12
inactive: dose: 75.0 mg/kg/injection, schedule: Q01DX001 (ip), vehicle: carboxymethylcellulose (CMC) 100 % of control | dose: 150.0 mg/kg/injection, schedule: Q01DX001 (ip), vehicle: carboxymethylcellulose (CMC) 100 % of control

O=CNc1ccccc1
inactive: [2] 96 % of control | [3] 98 % of control | [21] 98 % of control

CC(C)NC(=O)C1C2C=CC(CC2)C1C(=O)NC(C)C (stereo unspecified)
inactive: [2] 100 % of control | [3] 92 % of control | [21] 104 % of control

Cc1cc(C)c(C(=O)O)c(C)c1Br
inactive: dose: 50.0 mg/kg/injection, schedule: Q01DX001 (ip), vehicle: other 98 % of control | dose: 100.0 mg/kg/injection, schedule: Q01DX001 (ip), vehicle: other 104 % of control | [2] 96 % of control | dose: 200.0 mg/kg/injection, schedule: Q01DX001 (ip), vehicle: other 96 % of control | [3] 94 % of control | dose: 400.0 mg/kg/injection, schedule: Q01DX001 (ip), vehicle: other 111 % of control | [21] 103 % of control

O=C1Cc2cccc3c2C(C1)CN3C(=O)c1ccccc1 (stereo unspecified)
inactive: [17] 90 % of control | [2] 100 % of control | [18] 88 % of control | [3] 94 % of control | [22] 97 % of control | [21] 95 % of control

CC(C)COC(=O)c1ccc(NC(=O)Nc2ccccc2)cc1
inactive: [17] 93 % of control | [2] 92 % of control | [18] 88 % of control | [3] 88 % of control | [22] 97 % of control | [21] 87 % of control

COc1ccc(CN(C)N=Nc2ccc(C#N)cc2)cc1
inactive: [17] 98 % of control | [18] 119 % of control | [22] 124 % of control

CCCCCCCCCC(=O)N/N=C\c1cccc2ccccc12
inactive: [19] 90 % of control | [20] 103 % of control | [8] 87 % of control

CCCCC(CC)CCC(=O)CC(C)C (stereo unspecified)
inactive: [8] 91 % of control | [5] 108 % of control | [9] 102 % of control | [6] 98 % of control | [7] 98 % of control

CCC1CN2CCc3cc(OC)c(OC)cc3C2CC1CC1c2cc(OC)c(OC)cc2CCN1C(=O)C(N)Cc1ccccc1 (stereo unspecified)
inactive: [11] 107 % of control | [12] 97 % of control | dose: 400.0 mg/kg/injection, schedule: Q01DX001 (ip), vehicle: saline 110 % of control
